Results taken from publication PMC10835127, “Viruses traverse the human proteome through peptide interfaces that can be biomimetically leveraged for drug discovery” (Proceedings of the National Academy of Sciences of the …, 2024).

How the values were obtained:
[1] = Cryopreserved hepatocyte stability, human; assay type: in vitro ADME; settings: cryopreserved hepatocytes, read-out: CLint hHep
Method: Cryopreserved hepatocyte stability
Tested compounds (1 μM) were incubated with human cryopreserved hepatocytes (pool of 5) (IVT Celsis) and mouse cryopreserved hepatocytes (IVT Celsis). Hepatocytes (1, 0.5 or 0.25 x10^6 cells/mL, Williams’ Medium E (WME) with 4 mM L-glutamine and 2 mM magnesium sulphate) containing tested compound (final substrate concentration 1 μM; final DMSO concentration 0.25 %) were preincubated at 37 °C. The final incubation volume was 500 μl. 3 species-specific control compounds were included with each species. At 7 time points (0, 10, 20, 40, 60, 90, and 120 min), reactions were stopped by transferring 50 μl of the incubation mixture into 0.5 μM carbamazepine in cold acetonitrile. Tested compound concentrations were analyzed by LC-MS/MS and the resulting data were used to determine the half-life and intrinsic clearance of the compound in each species. […]

[2] = system: influenza A H1N1 virus; experiment: microbe, parasite or virus in culture; settings: H1N1, A549, read-out: Neuraminidase activity assay IC50
[3] = Kinetic solubility; assay type: physicochemical; settings: PBS pH 7.4 buffer, pH 7.4, aqueous buffer, kinetic from dmso stock
Method: 10 mM DMSO Stock solutions of tested compounds were distributed into filtration plate (Multiscreen Durapore 0.45µm) containing PBS pH 7.4 buffer to a final maximum concentration of 130 μM (1.3 % DMSO/buffer). Solutions or suspensions were shaken for 30 min at room temperature. The samples were filtered under vacuum into a collection plate and diluted 50 % with ACN for UV analysis. Quantification was performed against a Reference plate containing the same tested compounds fully solubilized in ACN/PBS buffer 1:1. Reference and Sample plates were analyzed by UPLC/UV-MS using a generic UPLC method. […]

[4] = system: diet-induced obese model of NASH; experiment: NASH mouse model (AMLN diet-induced obese); assay type: in vivo, C57BL/6JRj mice; settings: oral, 8 wk
Method: Fig. 6. Effect of the lead compound in a diet-induced obese model of NASH. Mice fed with a high fat, high fructose, and cholesterol supplemented diet for 38 wk were then treated in the last 8 wk with vehicle, dEF3122, or OCA (obeticholic acid) at indicated concentrations (n = 12 animals per group). (A and B) Histopathological mean score changes between the beginning and end of the treatment for liver portal inflammation (A) and liver portal fibrosis (B) are shown with representative stained liver sections of hematoxylin and eosin (H&E) and picrosirius red stains, respectively. (C–E) (C) Areas of kidney fibrosis at the end of the treatment are shown as % of the total area of the selected fields with representative sections of the kidney stained with picrosirius red. (D) % CD3 and (E) % F4/80 positive areas in kidneys with representative sections of CD3 and F4/80 immunostainings. *P < 0.05, **P < 0.01, and ***P < 0.001 from the T test with a preliminary nonsignificant Shapiro–Wilk test or from Wilcoxon signed–rank test otherwise.
Five-week-old male C57BL/6JRj mice were fed either chow diet or AMLN diet (40% total fat kcal of which 18.5% were trans-fat kcal, 20% fructose, and 2% cholesterol). This diet was maintained for 30 wk prior to study initiation. Three weeks prior to study initiation, liver biopsies were taken, and animals with steatosis grade <2 and fibrosis stage <1 were excluded from the study. Prior to the first administration of the test compound, stratified randomization of mice into treatment groups was performed according to collagen 1a1 (IHC) morphometry from the week 3 biopsies. Each treatment group consisted of 12 mice. For a total of 8 wk, compound dEF3122 was administered orally, twice daily at a concentration of 7 mg/kg or 20 mg/kg. OCA was administered orally, once daily at a concentration of 7 mg/kg. Animals were killed at the end of the treatment, and livers and kidneys were collected. […]
NASH histopathology and immunochemistry
Livers were fixed in 10 % neutral buffered formalin and paraffin-embedded; and sections were stained with H&E and picrosirius red to analyze their morphology. Histopathological analysis was performed by a pathologist blinded to the study. Fibrosis was evaluated by quantification of the picrosirius red positive areas. Inflammation was graded by counting the H&E positive inflammatory foci per field.
Kidneys were fixed in 4 % PFA and paraffin embedded. 4-μm sections were stained with picrosirius red. Images were acquired using a digital slide scanner (Nanozoomer S210 Digital Slide Scanner, Hamamatsu). Renal lesions were blindly examined by a renal pathologist. The extent of interstitial fibrosis was quantified using Image J software (NIH) on Sirius red scanned colored sections. In short, at least 20 random selected fields (original magnification, ×200) across the kidney cortex were analyzed per each kidney section, and the results were expressed as percentages of the total area of the selected fields.
For immunohistochemistry, 4-µm sections of paraffin-embedded kidneys were submitted for appropriate antigen retrieval by high pressure heating in a solution of Tris EDTA Tween or in a citrate solution. Then, sections were then incubated overnight at 4°C with the following antibodies: rabbit monoclonal anti-CD3 (Abcam, 1:100) and rat monoclonal anti- F4/80 (Biorad, 1:100). After washing, sections were incubated with appropriate amplification secondary antibody: biotin-coupled anti-rabbit (GE Healthcare) for CD3 and biotin-coupled anti-rat (Vector Laboratories) for F4/80, and then incubated with streptavidin coupled HRP (Southern). At the end, DAB (DAKO) staining was used to detect HRP. For quantification of CD3+ and F4/80+ renal cells, the degrees of cellular infiltrate were automatically quantified using ImageJ software (NIH) and expressed as a percentage of the surface area of the positive staining per field, in at least 10 random fields perp

[5] = molecular target: T1, MiNT (Homo sapiens, UniProt P0C7P0); experiment: In vitro NEET [2Fe-2S] cluster release, MiNT; assay type: biochemical; settings: recombinant MiNT, 37 °C, absorbance 460 nm
T1 construct: made in house; host or cells: E. coli
T1 sequence (P0C7P0 15-127): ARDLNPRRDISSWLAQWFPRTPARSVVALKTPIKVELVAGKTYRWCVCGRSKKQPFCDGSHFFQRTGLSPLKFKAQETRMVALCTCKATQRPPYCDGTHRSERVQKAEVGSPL
Method: MitoNEET ([60]) and NAF-1 ([61]) cytosolic domains and MiNT ([62]) were purified from E. coli as previously published. Experiments were performed in 96-well plates at 37 °C with […] of Fe-S cluster in a buffer composed of 50 mM Tris-HCl pH 7 and 100 mM NaCl. dEF3122 was dissolved in dimethyl sulfoxide (DMSO) at 10 mM. CPEP31 was dissolved in PBS at 10 mM. After 20 min of incubation of the protein with the molecule, NEET cluster release was followed by measuring the absorbance at 460 and 800 nm over time using a plate reader (SpectraMax ID3). The absorbance at 460 nm was corrected for the variation of the baseline (absorbance at 800 nm) over time and normalized at 1 at the beginning of the kinetics.

[6] = dEF3122 twice daily 7 or 20 mg/kg, OCA once daily 7 mg/kg, vs vehicle

O=C(Nc1scc(C2CCc3ccccc3C2)c1C(=O)O)c1ccccc1 (stereo not drawn) [dEF3122]
hepatocyte CLint at 1 µM [1]: 19 µL/min/1e6 cells | IC50 [2]: 3 nM | solubility kinetic at 30 min [3]: < 5 µM | kidney interstitial lymphocytes infiltration (CD3) ([4]; twice daily 7 or 20 mg/kg): attenuated interstitial lymphocytes infiltration | kidney macrophages infiltration (F4/80) ([4]; twice daily 7 or 20 mg/kg): but not macrophages infiltration | kidney fibrosis ([4]; twice daily 7 or 20 mg/kg, picrosirius red): dramatically reduced fibrosis | liver portal fibrosis [4, 6]: resolved portal inflammation and fibrosis | liver portal inflammation [4, 6]: resolved portal inflammation | interaction by [2Fe-2S] cluster release assay [5]: validated the interaction
